Earlier results as cited in patent US7354574B2, “Treatment of ocular disease” (Advanced Ocular Systems Limited, priority 2002, dated 2008).

Conditions: administered systemically

C=CC[C@@H]1/C=C(\C)C[C@H](C)C[C@H](OC)[C@H]2O[C@@](O)(C(=O)C(=O)N3CCCC[C@H]3C(=O)O[C@H](/C(C)=C/[C@@H]3CC[C@@H](O)[C@H](OC)C3)[C@H](C)[C@@H](O)CC1=O)[C@H](C)C[C@@H]2OC [tacrolimus]
Renal and hepatic toxicity: significant renal and hepatic toxicity
